Here are results for 1 compound from PMC9369419 (International Journal of Molecular Sciences, 2022).

In general, pIC50 refers to the negative decadic logarithm of the IC50, by convention in mol/L.

The target in one test is T1, GluK3a (Rattus norvegicus, UniProt P42264).
T1 construct: expressed in transfected cells
Description: Intracellular Ca2+ imaging assay, HEK293 cells expressing GluK3a. The format is cell-based. An excerpt: For the determination of antagonistic activity of compounds at GluK1, GluK3 and GluA2 receptors, stable HEK293 cell lines expressing rat GluK1b(Q), GluK3a, and GluA2(Q)i were created. A polyclonal stable cell line expressing GluK3a was created as described previously. For the creation of polyclonal stable cell lines expressing GluK1and GluA2 receptors, cDNA encoding blasticidin-S deaminase (blas) enzymes were inserted into the pIRES plasmid vector (Clontech, Mountain View, CA, USA) to create the plasmid vector pRES(blas). Subsequently, cDNA for rat GluK1(Q)1b and the flip isoform of rat GluA2(Q)i were inserted into pRES(blas) to create the expression constructs GluK1b(Q)pIRES(blas) and GluA2i(Q)pIRES(blas), respectively. These were used to transfect GripTite^TM HEK293 cells followed by selecting with 20 µg/mL blasticidin (Invivogen, Toulouse, France) and 0.50 mg/mL geneticin in the presence of 20 µM of the AMPA receptor antagonist CNQX (Tocris, Bristol, UK) until stably transfected GluK1b(Q) and GluA2(Q)i cell lines were obtained. For functional assays, cells were plated into clear-bottomed, black 96-well fluorescence culture plates (Corning, Vordingborg, Denmark), and when >70% confluent, the cells were loaded with 2 μM Fluo 4-AM calcium sensitive dye (Abcam, Cambridge, UK) and used for the imaging of agonist-evoked changes in intracellular Ca^2+ using a FlexStation I plate reader (Molecular Devices, San Jose, CA, USA). […] Changes in dye fluorescence in response to the addition of an agonist solution were then measured at 538 nm using excitation at 485 nm and emission cut-off at 515 nm. Baseline fluorescence was measured for 16 s before the addition of 50 µL agonist solution to each well of the assay plate, and fluorescence was measured for 120 to 160 s after addition of the agonists. Peak change in fluorescence was calculated as the difference between the maximal observed increase in fluorescence and pre-agonist baseline fluorescence. The agonist solutions contained 100 µM KA together with 300 µM of the KAR positive allosteric modulator BPAM344 (Sigma-Aldrich Chemical, St. Louis, MO, USA) for GluK1 and GluK3 experiments or 100 µM glutamate together with 100 µM of the AMPAR positive allosteric modulator cyclothiazide for GluA2 experiments (HelloBio, Bristol, UK). Responses were determined in at least triplicate at each compound concentration.

Another test has as its target T2, human mGluR4 (Homo sapiens, UniProt Q14833).
T2 construct: expressed in transfected cells; host or cells: HEK293A (transient, Lipofectamine 2000)
Put plainly: mGluR4 functional assay (IP1 accumulation, HEK293A cells). It counts as cell-based. The settings on record: 0.1 mM compound. From the text: Dulbecco’s modified Eagle medium (DMEM), dialyzed fetal bovine serum (FBS), Opti-MEM, penicillin-streptomycin, Dulbecco’s phosphate-buffered saline (DPBS), Hank’s balanced salt solution (HBSS) and Lipofectamine 2000 were purchased from Thermo Fisher Scientific (Waltham, MA, USA). An IP-One Gq kit was purchased from Cisbio (Codolet, France). Quisqualate and poly-D-lysine (PDL) hydrobromide were purchased from Sigma-Aldrich (St. Louis, MO, USA). Falcon clear, tissue culture-treated 96-well plates were from Corning Inc. (Corning, NY, USA). OptiPlate-384 white, opaque 384-well plates were from PerkinElmer, (Waltham, MA, USA). L-AP4 and LY341495 were purchased from Tocris Bioscience (Bristol, UK). The HEK293A cells were a kind gift from Dr. Asuka Inoue (Tohoku University, Sendai, Japan). Plasmids encoding human mGluR4 and Flag-tagged human mGluR5 were kind gifts from Jesper M. Mathiesen (University of Copenhagen, København, Denmark). […]
Cell culture and IP1 Assay. […] IP1 accumulation was measured on an EnVision 2104 Multilabel Reader using a 340/60 nm excitation filter and 615/8.5 nm (donor) and 665/7.5 nm (acceptor) emission filters. HTRF ratios were calculated as the ratio of acceptor over donor emission (665 nm/615 nm) and converted to IP1 concentrations with an IP1 standard curve according to the instructions from the kit manufacturer.

pIC50: −log10 of the molar value.

T1 sequence (P42264 32-919): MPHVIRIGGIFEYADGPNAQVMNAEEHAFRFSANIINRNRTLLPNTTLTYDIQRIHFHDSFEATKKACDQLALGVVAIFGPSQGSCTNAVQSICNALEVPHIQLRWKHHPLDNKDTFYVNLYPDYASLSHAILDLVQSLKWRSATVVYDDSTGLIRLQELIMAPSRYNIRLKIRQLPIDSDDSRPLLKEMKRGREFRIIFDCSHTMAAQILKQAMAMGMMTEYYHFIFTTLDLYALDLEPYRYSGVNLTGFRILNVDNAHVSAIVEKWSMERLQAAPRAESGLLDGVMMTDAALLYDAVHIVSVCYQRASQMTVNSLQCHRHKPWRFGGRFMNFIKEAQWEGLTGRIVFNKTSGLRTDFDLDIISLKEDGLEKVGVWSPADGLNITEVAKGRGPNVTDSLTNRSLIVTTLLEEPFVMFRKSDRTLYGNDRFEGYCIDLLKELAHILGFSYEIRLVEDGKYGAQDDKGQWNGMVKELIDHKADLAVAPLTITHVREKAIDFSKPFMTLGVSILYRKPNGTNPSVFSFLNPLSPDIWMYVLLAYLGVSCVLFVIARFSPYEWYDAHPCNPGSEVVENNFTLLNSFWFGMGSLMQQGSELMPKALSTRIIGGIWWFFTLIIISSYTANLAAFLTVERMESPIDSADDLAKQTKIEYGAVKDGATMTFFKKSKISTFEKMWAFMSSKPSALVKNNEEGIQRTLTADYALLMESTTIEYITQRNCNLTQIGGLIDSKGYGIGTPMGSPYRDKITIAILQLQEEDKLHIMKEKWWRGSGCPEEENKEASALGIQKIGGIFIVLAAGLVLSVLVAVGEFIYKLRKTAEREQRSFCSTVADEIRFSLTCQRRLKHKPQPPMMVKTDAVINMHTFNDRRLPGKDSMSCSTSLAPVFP
T2 sequence (Q14833 33-912): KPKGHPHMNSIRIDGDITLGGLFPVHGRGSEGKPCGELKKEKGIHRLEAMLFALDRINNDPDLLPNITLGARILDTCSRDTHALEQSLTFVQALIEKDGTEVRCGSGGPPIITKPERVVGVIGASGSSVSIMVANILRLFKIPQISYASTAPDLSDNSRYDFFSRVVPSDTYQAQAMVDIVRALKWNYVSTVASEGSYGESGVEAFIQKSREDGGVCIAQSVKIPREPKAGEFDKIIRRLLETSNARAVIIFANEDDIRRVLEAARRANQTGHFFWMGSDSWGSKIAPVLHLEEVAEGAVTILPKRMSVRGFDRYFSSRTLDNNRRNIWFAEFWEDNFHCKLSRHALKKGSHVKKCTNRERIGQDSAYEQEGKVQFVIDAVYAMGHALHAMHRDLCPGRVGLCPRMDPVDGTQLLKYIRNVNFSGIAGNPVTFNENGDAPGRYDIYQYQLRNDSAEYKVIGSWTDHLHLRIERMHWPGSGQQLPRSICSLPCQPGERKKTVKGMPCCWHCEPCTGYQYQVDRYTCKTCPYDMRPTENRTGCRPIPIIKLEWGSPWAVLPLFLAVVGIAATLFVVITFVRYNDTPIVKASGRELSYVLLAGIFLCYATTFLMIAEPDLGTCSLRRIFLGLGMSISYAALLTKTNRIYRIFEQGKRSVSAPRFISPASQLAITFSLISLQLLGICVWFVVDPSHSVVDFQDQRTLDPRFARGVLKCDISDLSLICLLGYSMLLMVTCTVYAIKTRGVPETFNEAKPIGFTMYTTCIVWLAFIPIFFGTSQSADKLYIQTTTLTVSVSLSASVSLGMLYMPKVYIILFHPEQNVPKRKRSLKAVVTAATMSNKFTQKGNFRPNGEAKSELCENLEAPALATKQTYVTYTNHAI

As to `O=C(Nn1c(=O)c(=O)[nH]c2cc(C#Cc3cnc4cccnn34)ccc21)c1ccccc1` [Compound 28], the “inhibition of agonist-evoked responses at GluK3” value on GluK3a (10 µM compound, Ca2+ fluorescence) is reported as “full inhibition”. Moreover, the pIC50 on GluK3a (100 µM KA + 300 µM BPAM344, Ca2+ fluorescence, read-out: IC50, antagonism of agonist-evoked responses at GluK3) was 5.44. For the same compound, the “agonist or antagonist activity at mGluR4” value at human mGluR4 is listed as “neither agonistic nor antagonistic”.
